Columns and labels:
Type in all cases: in vivo
Diabrotica balteata = experiment: Maize seedling spray test, action against Diabrotica balteata; settings: 6 days
Description: A plot (a) planted with maize seedlings cv. KnockOut® and an adjacent plot (b) of the same size which is planted with conventional maize are sprayed with an aqueous emulsion of a spray mixture comprising 400 ppm thiamethoxam. Immediately afterwards, plot (b) is treated with an emulsion spray mixture comprising 400 ppm of the endotoxin expressed by KnockOut®. After the spray coating has dried on, the seedlings are populated with 10 Diabrotica balteata larvae in the second stage and transferred to a plastic container. The test is evaluated 6 days later. The percentage reduction in population (% action) is determined by comparing the number of dead pests on the plants of plot (a) with that on the plants of plot (b).

Spodoptera spp. = experiment: Maize plot spray test (KnockOut vs conventional maize), action against Spodoptera spp.; settings: 6 days
Description: (§1) A plot (a) planted with maize cv. KnockOut® and an adjacent plot (b) of the same size which is planted with conventional maize, both showing natural infestation with Ostrinia nubilalis, Spodoptera spp. or Heliothis, are sprayed with an aqueous emulsion spray mixture comprising 200, 100, 50, 10, 5, 1 ppm of Ti-435. Immediately afterwards, plot (b) is treated with an emulsion spray mixture comprising 200, 100, 50, 10, 5, 1 ppm of the endotoxin expressed by KnockOut®. Evaluation takes place 6 days later. The percentage reduction in population (% action) is determined by comparing the number of dead pests on the plants of plot (a) with that on the plants of plot (b).
as §1, with “thiamethoxam.” for “Ti-435.”
as §1, with “imidacloprid.” for “Ti-435.”

[1] = system: Frankliniella occidentalis; experiment: Cotton seedling spray test, action against Frankliniella occidentalis; settings: 20° C, 3 and 6 days; for control (percentage reduction in population, % action): spray 400 ppm; for control level: plot (b) conventional cotton seedlings, 400 ppm compound
Description: (§2) Cotton seedlings expressing the δ-endotoxin CryIIIa on a plot (a) and conventional cotton seedlings on a plot (b) are infected with Frankliniella occidentalis and subsequently sprayed with a spray mixture comprising 400 ppm thiamethoxam. Immediately afterwards, plot (b) is treated with an emulsion spray mixture comprising 400 ppm of the δ-endotoxin CryIIIa. The seedlings of plot (a) and (b) are then incubated at 20° C. The test is evaluated after 3 and 6 days.
The percentage reduction in population (% action) is determined by comparing the number of dead pests on the plants of plot (a) with that on the plants of plot (b).
as §2, with “CryIa(c)” for “CryIIIa”, “CryIa(c).” for “CryIIIa.”

Nephotettix cincticeps = experiment: Rice plant pot test, action against Nephotettix cincticeps (systemic); settings: 6 days; for control (percentage reduction in population, % action): placed in aqueous emulsion with 400 ppm compound; for control level: pot (B) conventional rice plants
Description: (§3) Rice plants expressing the δ-endotoxin CryIa(b) are planted in a in pot (A) and conventional ice plants are planted in a pot (B). Pot (A) is placed in an aqueous emulsion containing 400 ppm thiamethoxam, whereas plot (B) is placed in a pot containing 400 ppm thiamethoxam and 400 ppm of the δ-endotoxin CryI(b). The plants are subsequently infected with Nephotettix cincticeps larvae of the second and third stage. The test is evaluated after 6 days.
(§4) The percentage reduction in population (% action) is determined by comparing the number of dead pests on the plants of pot (A) with that on the plants of pot (B).
as §3, with “CryIa(c)” for “CryIa(b)”, “CryI(c).” for “CryI(b).”

Heliothis spp. = experiment: Maize plot spray test (KnockOut vs conventional maize), action against Heliothis spp.; settings: 6 days
Description: as §1
as §1, with “thiamethoxam.” for “Ti-435.”
as §1, with “imidacloprid.” for “Ti-435.”

Ostrinia nubilalis = experiment: Maize plot spray test (KnockOut vs conventional maize), action against Ostrinia nubilalis; settings: 6 days
Description: as §1
as §1, with “thiamethoxam.” for “Ti-435.”
as §1, with “imidacloprid.” for “Ti-435.”

Nilaparvata lugens = experiment: Rice plant pot test, action against Nilaparvata lugens (systemic); settings: 6 days; for control (percentage reduction in population, % action): placed in aqueous emulsion with 400 ppm compound; for control level: pot (B) conventional rice plants
Description: (§5) Rice plants expressing the δ-endotoxin CryIA(b) are planted in a in pot (A) and conventional rice plants are planted in a pot (B). Pot (A) is placed in an aqueous emulsion containing 400 ppm thiamethoxam, whereas plot (B) is place in a pot containing 400 ppm thiamethoxam and 400 ppm of the δ-endotoxin CryIA(b). The plants are subsequently infected with Nilaparvata lugens larvae of the second and third stage. The test is evaluated after 6 days.
as §4
as §5, with “CryIA(c)” for “CryIA(b)”, “CryIA(c).” for “CryIA(b).”

[2] = plot (a) maize cv. KnockOut, spray 200, 100, 50, 10, 5, 1 ppm, natural infestation
[3] = plot (b) conventional maize, compound 200, 100, 50, 10, 5, 1 ppm, then same ppm of the endotoxin expressed by KnockOut
[4] = pot (A) rice plants expressing δ-endotoxin CryIa(b)
[5] = pot (A) rice plants expressing δ-endotoxin CryIa(c)

`CN1COCN(Cc2cnc(Cl)s2)/C1=N\[N+](=O)[O-]` [thiamethoxam, 5-(2-Chlorthiazol-5-ylmethyl)-3-methyl-4-nitroimino-perhydro-1,3,5-oxadiazin] was tested, and the “control (percentage reduction in population, % action)” value (Diabrotica balteata; plot (a) maize seedlings cv. KnockOut, spray 400 ppm, larvae in the second stage) was “Improved control”, the control level (Diabrotica balteata; plot (b) conventional maize, 400 ppm compound, then 400 ppm of the endotoxin expressed by KnockOut) was no more than 60% and the “control (percentage reduction in population, % action)” value (Spodoptera spp.; [2]) was “Improved control”. For the same compound, the control level (Spodoptera spp.; [3]) was no more than 60%, the “control (percentage reduction in population, % action)” value ([1]; plot (a) cotton seedlings expressing δ-endotoxin CryIIIa) was “Improved control” and the “control (percentage reduction in population, % action)” value ([1]; plot (a) cotton seedlings expressing δ-endotoxin CryIa(c)) was “Improved control”. The control level ([1]; then 400 ppm δ-endotoxin CryIIIa) was no more than 60%, the control level ([1]; then 400 ppm δ-endotoxin CryIa(c)) was no more than 60% and the “control (percentage reduction in population, % action)” value (Nephotettix cincticeps; [4]) was “Improved control”. For the same compound, the “control (percentage reduction in population, % action)” value (Nephotettix cincticeps; [5]) was “Improved control”, the control level (Nephotettix cincticeps; 400 ppm compound and 400 ppm δ-endotoxin CryI(b)) was no more than 60% and the control level (Nephotettix cincticeps; 400 ppm compound and 400 ppm δ-endotoxin CryI(c)) was no more than 60%. The “control (percentage reduction in population, % action)” value (Heliothis spp.; [2]) was “Improved control”, the control level (Heliothis spp.; [3]) was no more than 60% and the “control (percentage reduction in population, % action)” value (Ostrinia nubilalis; [2]) was “Improved control”. The control level (Ostrinia nubilalis; [3]) was no more than 60%, the “control (percentage reduction in population, % action)” value (Nilaparvata lugens; [4]) was “Improved control” and the “control (percentage reduction in population, % action)” value (Nilaparvata lugens; [5]) was “Improved control”. It also gave a control level (Nilaparvata lugens; 400 ppm compound and 400 ppm δ-endotoxin CryIA(b)) of no more than 60% and a control level (Nilaparvata lugens; 400 ppm compound and 400 ppm δ-endotoxin CryIA(c)) of no more than 60%.
